Test results reported in patent US20260265265A1, “NOVEL BENZIMIDAZOLONE DERIVATIVE COMPOUND AS AUTOTAXIN INHIBITOR” (LG CHEM, LTD., priority 2023, published 2026).

Target: T1, Recombinant Human ENPP-2/Autotaxin (Homo sapiens, UniProt Q13822)
T1 construct: purchased R&D systems 5255-EN
Assay: LysoPLD activity measurement (autotaxin enzyme inhibition, choline release, TOOS reagent)
Format: biochemical
Details: LysoPLD inhibitory activity; substrate 14:0 LysoPC; absorbance at 555 nm
Protocol: Such a measurement method is a method of measuring the amount of choline, which is a reaction product in an autotaxin enzyme reaction, using a TOOS reagent. Depending on the activity of the autotaxin inhibitor, the amount of choline produced as a reaction product varies, which affects the final absorbance.
After 30 min, 14:0 LysoPC of the substrate diluted to a concentration of 300 μM with the enzyme reaction buffer solution was dispensed into each well by 50 μL and allowed to stand at 37° C. for 90 minutes. At this time, negative control wells were dispensed with 1% DMSO, substrate, and autotaxin instead of the compound, and positive control wells were dispensed with 1% DMSO and substrate.

Compound	IC50 [nM]
O=C(O)c1c(F)ccc(Cn2c(=O)n(-c3ccc(N4CCOCC4)cc3)c3c(F)c(Cl)ccc32)c1F [Example 204, 3-((5-chloro-4-fluoro-3-(4-morpholinophenyl)-2-oxo-2,3-dihydro-1H-benzo[d]imidazol-1-yl)methyl)-2,6-difluorobenzoic acid]	10 to 100
O=C(O)c1cccc(C2(n3c(=O)n(-c4ccc(CC(=O)N5CCCC5)cc4)c4cc(Cl)ccc43)CC2)c1 [Example 170, 3-(1-(5-chloro-2-oxo-3-(4-(2-oxo-2-(pyrrolidin-1-yl)ethyl)phenyl)-2,3-dihydro-1H-benzo[d]imidazol-1-yl)cyclopropyl)benzoic acid]	< 10
CCCOc1ccc(-n2c(=O)n(Cc3cccc(C(=O)O)c3)c3ccc(Cl)cc32)cn1 [Example 76, 3-((5-chloro-2-oxo-3-(6-propoxypyridin-3-yl)-2,3-dihydro-1H-benzo[d]imidazol-1-yl)methyl)benzoic acid]	100 to 1000
O=C(O)c1cccc(Cn2c(=O)n(-c3ccc(OCC4CCC4)c(F)c3)c3cc(Cl)ccc32)c1 [Example 30, 3-((5-chloro-3-(4-(cyclobutylmethoxy)-3-fluorophenyl)-2-oxo-2,3-dihydro-1H-benzo[d]imidazol-1-yl)methyl)benzoic acid]	100 to 1000
O=C(O)c1cc(Cn2c(=O)n(-c3ccccc3)c3cc(Cl)ccc32)ccc1F [Example 35, 5-((5-chloro-2-oxo-3-phenyl-2,3-dihydro-1H-benzo[d]imidazol-1-yl)methyl)-2-fluorobenzoic acid]	100 to 1000
O=C(O)c1cccc(C2(n3c(=O)n(-c4ccc(C(=O)N5CC(O)C5)cc4)c4cc(Cl)cnc43)CC2)c1 [Example 224, 3-(1-(6-chloro-1-(4-(3-hydroxyazetidine-1-carbonyl)phenyl)-2-oxo-1,2-dihydro-3H-imidazo[4,5-b]pyridin-3-yl)cyclopropyl)benzoic acid]	< 10
CN(C)C(=O)c1ccc(-n2c(=O)n(CCc3cccc(C(=O)O)c3)c3ccc(Cl)cc32)cc1 [Example 113, 3-(2-(5-chloro-3-(4-(dimethylcarbamoyl)phenyl)-2-oxo-2,3-dihydro-1H-benzo[d]imidazol-1-yl)ethyl)benzoic acid]	100 to 1000
CCC(=O)N1CCC(c2ccc(-n3c(=O)n(Cc4cccc(C(=O)O)c4)c4ccc(Cl)cc43)cc2)CC1 [Example 102, 3-((5-chloro-2-oxo-3-(4-(1-propionylpiperidin-4-yl)phenyl)-2,3-dihydro-1H-benzo[d]imidazol-1-yl)methyl)benzoic acid]	10 to 100
O=C(O)c1cccc(C2(n3c(=O)n(-c4ccc(C5(O)COC5)cc4)c4cc(Cl)ccc43)CC2)c1 [Example 258, 3-(1-(5-chloro-3-(4-(3-hydroxyoxetan-3-yl)phenyl)-2-oxo-2,3-dihydro-1H-benzo[d]imidazol-1-yl)cyclopropyl)benzoic acid]	< 10
O=C(O)c1cccc(C2(n3c(=O)n(-c4ccc(C(=O)N5CC(O)C5)cc4)c4cc(Cl)ccc43)CC2)c1F [Example 134, 3-(1-(5-chloro-3-(4-(3-hydroxyazetidine-1-carbonyl)phenyl)-2-oxo-2,3-dihydro-1H-benzo[d]imidazol-1-yl)cyclopropyl)-2-fluorobenzoic acid]	< 10
CC(C)(C)OC(=O)N1CCC2(CC1)CN(c1ccc(-n3c(=O)n(C4(c5cc(F)cc(C(=O)O)c5)CC4)c4ccc(Cl)cc43)cc1)C2 [Example 195, 3-(1-(3-(4-(7-(tert-butoxycarbonyl)-2,7-diazaspiro[3.5]nonan-2-yl)phenyl)-5-chloro-2-oxo-2,3-dihydro-1H-benzo[d]imidazol-1-yl)cyclopropyl)-5-fluorobenzoic acid]	10 to 100
COC1CCN(C(=O)c2ccc(-n3c(=O)n(Cc4cccc(C(=O)O)c4)c4ccc(Cl)cc43)cc2)C1 (stereo not drawn) [Example 59, 3-((5-chloro-3-(4-(3-methoxypyrrolidine-1-carbonyl)phenyl)-2-oxo-2,3-dihydro-1H-benzo[d]imidazol-1-yl)methyl)benzoic acid]	10 to 100
CC(C)(C)c1ccc(-n2c(=O)n(Cc3cccc(C(=O)O)c3)c3ccc(Cl)cc32)cc1 [Example 12, 3-((3-(4-(tert-butyl)phenyl)-5-chloro-2-oxo-2,3-dihydro-1H-benzo[d]imidazol-1-yl)methyl)benzoic acid]	100 to 1000
CN(C)C(=O)c1ccc(-n2c(=O)n(Cc3cccc(C(=O)O)c3F)c3ccc(Cl)cc32)cc1 [Example 38, 3-((5-chloro-3-(4-(dimethylcarbamoyl)phenyl)-2-oxo-2,3-dihydro-1H-benzo[d]imidazol-1-yl)methyl)-2-fluorobenzoic acid]	< 10
O=C(O)c1cccc(C2(n3c(=O)n(-c4ccc(N5CCC(F)(F)C5)nc4)c4cc(Cl)ccc43)CC2)c1 [Example 165, 3-(1-(5-chloro-3-(6-(3,3-difluoropyrrolidin-1-yl)pyridin-3-yl)-2-oxo-2,3-dihydro-1H-benzo[d]imidazol-1-yl)cyclopropyl)benzoic acid]	< 10
O=C(O)c1cccc(C2(n3c(=O)n(-c4ccc(S(=O)(=O)N5CCCCC5)cc4)c4cc(Cl)ccc43)CC2)c1 [Example 214]	< 10

Next, values leading:

IC50 [nM]	Compound
10 to 100	O=C(O)c1cccc(Cn2c(=O)n(-c3ccc(C4CCN(C(=O)C5CCC5)CC4)cc3)c3c(F)c(Cl)ccc32)c1F [Example 152, 3-((5-chloro-3-(4-(1-(cyclobutanecarbonyl)piperidin-4-yl)phenyl)-4-fluoro-2-oxo-2,3-dihydro-1H-benzo[d]imidazol-1-yl)methyl)-2-fluorobenzoic acid]
100 to 1000	CN1CCN(c2ccc(-n3c(=O)n(Cc4cccc(C(=O)O)c4)c4ccc(Cl)cc43)cc2)CC1 [Example 97, 3-((5-chloro-3-(4-(4-methylpiperazin-1-yl)phenyl)-2-oxo-2,3-dihydro-1H-benzo[d]imidazol-1-yl)methyl)benzoic acid]
< 10	CC(C)(CO)c1ccc(-n2c(=O)n(C3(c4cccc(C(=O)O)c4)CC3)c3ccc(Cl)cc32)cc1 [Example 218, 3-(1-(5-chloro-3-(4-(1-hydroxy-2-methylpropan-2-yl)phenyl)-2-oxo-2,3-dihydro-1H-benzo[d]imidazol-1-yl)cyclopropyl)benzoic acid]
< 10	CC(C)(CF)c1ccc(-n2c(=O)n(C3(c4cccc(C(=O)O)c4)CC3)c3ccc(Cl)cc32)cc1 [Example 219, 3-(1-(5-chloro-3-(4-(1-fluoro-2-methylpropan-2-yl)phenyl)-2-oxo-2,3-dihydro-1H-benzo[d]imidazol-1-yl)cyclopropyl)benzoic acid]
10 to 100	O=C(O)c1cc(Cn2c(=O)n(-c3ccc(N4CCOCC4)cc3)c3c(F)c(Cl)ccc32)ccc1F [Example 48, 5-((5-chloro-4-fluoro-3-(4-morpholinophenyl)-2-oxo-2,3-dihydro-1H-benzo[d]imidazol-1-yl)methyl)-2-fluorobenzoic acid]
< 10	CN(C)C(=O)c1ccc(-n2c(=O)n(Cc3cccc(C(=O)O)c3)c3c(F)cc(Cl)cc32)cc1 [Example 54, 3-((5-chloro-3-(4-(dimethylcarbamoyl)phenyl)-7-fluoro-2-oxo-2,3-dihydro-1H-benzo[d]imidazol-1-yl)methyl)benzoic acid]
100 to 1000	Cc1ccc(-n2c(=O)n(Cc3cccc(C(=O)O)c3)c3ccc(Cl)cc32)cc1 [Example 8, 3-((5-chloro-2-oxo-3-(p-tolyl)-2,3-dihydro-1H-benzo[d]imidazol-1-yl)methyl)benzoic acid]
10 to 100	O=C(O)c1cc(F)cc(Cn2c(=O)n(-c3ccc(N4CCOCC4)cc3)c3c(F)c(Cl)ccc32)c1 [Example 49, 3-((5-chloro-4-fluoro-3-(4-morpholinophenyl)-2-oxo-2,3-dihydro-1H-benzo[d]imidazol-1-yl)methyl)-5-fluorobenzoic acid]
< 10	O=C(O)c1cc(F)cc(C2(n3c(=O)n(-c4ccc(N5CC6(CCOCC6)C5)cc4)c4cc(Cl)ccc43)CC2)c1 [Example 193, 3-(1-(3-(4-(7-oxa-2-azaspiro[3.5]nonan-2-yl)phenyl)-5-chloro-2-oxo-2,3-dihydro-1H-benzo[d]imidazol-1-yl)cyclopropyl)-5-fluorobenzoic acid]
< 10	CN(C)c1ccc(-n2c(=O)n(C3(c4cc(F)cc(C(=O)O)c4)CC3)c3ncc(Cl)cc32)cc1 [Example 271, 3-(1-(6-chloro-1-(4-(dimethylamino)phenyl)-2-oxo-1,2-dihydro-3H-imidazo[4,5-b]pyridin-3-yl)cyclopropyl)-5-fluorobenzoic acid]
< 10	O=C(O)c1cccc(Cn2c(=O)n(-c3ccc(C(=O)N4CCC(O)CC4)cc3)c3cc(Cl)ccc32)c1 [Example 61, 3-((5-chloro-3-(4-(4-hydroxypiperidin-1-carbonyl)phenyl)-2-oxo-2,3-dihydro-1H-benzo[d]imidazol-1-yl)methyl)benzoic acid]
100 to 1000	O=C(O)c1cccc(Cn2c(=O)n(-c3ccccc3)c3cc(Cl)ccc32)c1F [Example 33, 3-((5-chloro-2-oxo-3-phenyl-2,3-dihydro-1H-benzo[d]imidazol-1-yl)methyl)-2-fluorobenzoic acid]
< 10	CN(C)c1ccc(-n2c(=O)n(C3(c4cccc(C(=O)O)c4)CC3)c3ncc(Cl)cc32)cc1 [Example 221, 3-(1-(6-chloro-1-(4-(dimethylamino)phenyl)-2-oxo-1,2-dihydro-3H-imidazo[4,5-b]pyridin-3-yl)cyclopropyl)benzoic acid]
10 to 100	O=C(O)c1cccc(Cn2c(=O)n(-c3ccc(C4CCN(C(=O)C5CC5)CC4)cc3)c3c(F)c(Cl)ccc32)c1F [Example 150, 3-((5-chloro-3-(4-(1-(cyclopropanecarbonyl)piperidin-4-yl)phenyl)-4-fluoro-2-oxo-2,3-dihydro-1H-benzo[d]imidazol-1-yl)methyl)-2-fluorobenzoic acid]
